In one assay the target is PLEK (Homo sapiens, UniProt P08567). As to the kind of experiment: nHU-MS peptide bait, prey PLEK.
In another assay the target is CCDC174 (Homo sapiens, UniProt Q6PII3). In words: nHU-MS peptide bait, prey CCDC174.
The target of another assay is T1, EHD1 (Homo sapiens, UniProt Q9H4M9).
T1 sequence (Q9H4M9 1-534): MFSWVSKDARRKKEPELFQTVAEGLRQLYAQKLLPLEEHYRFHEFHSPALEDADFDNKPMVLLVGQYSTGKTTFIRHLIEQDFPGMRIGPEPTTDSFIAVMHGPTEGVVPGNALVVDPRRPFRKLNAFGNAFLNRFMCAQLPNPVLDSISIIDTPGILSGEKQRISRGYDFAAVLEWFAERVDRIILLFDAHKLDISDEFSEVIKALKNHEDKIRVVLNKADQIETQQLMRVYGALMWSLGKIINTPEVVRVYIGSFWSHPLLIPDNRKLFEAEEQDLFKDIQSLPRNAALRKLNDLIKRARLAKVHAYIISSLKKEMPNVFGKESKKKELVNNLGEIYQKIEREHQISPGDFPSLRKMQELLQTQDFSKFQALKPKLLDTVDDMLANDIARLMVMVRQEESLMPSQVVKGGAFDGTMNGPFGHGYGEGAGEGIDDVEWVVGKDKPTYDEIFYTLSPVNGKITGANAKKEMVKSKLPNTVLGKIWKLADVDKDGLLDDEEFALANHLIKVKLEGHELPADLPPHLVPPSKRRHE
As to the kind of experiment: nHU-MS peptide bait, prey EHD1. Conditions: for BI: prey EHD1, MS7_Varjosalo.

The target in the next assay is SSBP2 (Homo sapiens, UniProt P81877+Q86U70). In words: nHU-MS peptide bait, prey SSBP2.
For a further assay, the target named is SSBP4 (Homo sapiens, UniProt Q86U70+Q9BWG4). In words: nHU-MS peptide bait, prey SSBP4.
In another assay the target is AURKA (Homo sapiens, UniProt O14965). As to the kind of experiment: nHU-MS peptide bait, prey AURKA.
In the next assay the target is HSPA5 (Homo sapiens, UniProt P11021). As to the kind of experiment: nHU-MS peptide bait, prey HSPA5.
The next assay addresses T2, PPP2R2A (Homo sapiens, UniProt P63151).
T2 sequence (P63151 1-447): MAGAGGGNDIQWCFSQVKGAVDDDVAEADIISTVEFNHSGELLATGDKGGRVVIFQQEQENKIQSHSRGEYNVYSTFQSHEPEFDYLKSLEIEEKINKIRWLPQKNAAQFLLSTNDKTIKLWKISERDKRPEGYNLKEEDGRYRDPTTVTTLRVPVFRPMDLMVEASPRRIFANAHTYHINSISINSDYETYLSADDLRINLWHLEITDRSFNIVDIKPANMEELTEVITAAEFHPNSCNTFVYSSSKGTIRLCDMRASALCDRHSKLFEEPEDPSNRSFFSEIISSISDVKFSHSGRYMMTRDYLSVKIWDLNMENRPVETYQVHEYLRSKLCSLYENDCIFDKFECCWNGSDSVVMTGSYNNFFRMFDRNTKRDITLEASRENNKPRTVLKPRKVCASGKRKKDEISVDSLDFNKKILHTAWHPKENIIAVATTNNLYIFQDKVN
In words: nHU-MS peptide bait, prey PPP2R2A. Conditions: for pKd: pKapp.

A further assay concerns the target T3, EHD4 (Homo sapiens, UniProt Q9H223).
T3 sequence (Q9H223 1-541): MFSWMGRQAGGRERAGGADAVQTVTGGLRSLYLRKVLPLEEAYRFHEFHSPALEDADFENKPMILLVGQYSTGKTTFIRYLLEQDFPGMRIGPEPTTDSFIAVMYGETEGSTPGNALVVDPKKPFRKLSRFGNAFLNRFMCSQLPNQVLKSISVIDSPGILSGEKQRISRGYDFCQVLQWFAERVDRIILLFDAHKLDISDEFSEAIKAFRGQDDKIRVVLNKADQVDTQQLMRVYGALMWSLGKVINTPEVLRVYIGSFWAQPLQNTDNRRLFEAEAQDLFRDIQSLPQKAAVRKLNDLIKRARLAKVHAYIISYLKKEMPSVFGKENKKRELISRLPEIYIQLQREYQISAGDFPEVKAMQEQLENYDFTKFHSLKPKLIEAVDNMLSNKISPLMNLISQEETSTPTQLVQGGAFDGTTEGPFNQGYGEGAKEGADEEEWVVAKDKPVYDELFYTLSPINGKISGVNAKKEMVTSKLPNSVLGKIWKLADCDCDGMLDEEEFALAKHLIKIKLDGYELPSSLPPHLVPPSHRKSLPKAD
As to the kind of experiment: nHU-MS peptide bait, prey EHD4.

For a further assay, the target named is GNB4 (Homo sapiens, UniProt Q9HAV0). In words: nHU-MS peptide bait, prey GNB4.
The next assay concerns the target TMA7 (Homo sapiens, UniProt Q9Y2S6). As to the kind of experiment: nHU-MS peptide bait, prey TMA7.
A further assay addresses T4, UBE2N (Homo sapiens, UniProt P61088).
T4 sequence (P61088 1-152): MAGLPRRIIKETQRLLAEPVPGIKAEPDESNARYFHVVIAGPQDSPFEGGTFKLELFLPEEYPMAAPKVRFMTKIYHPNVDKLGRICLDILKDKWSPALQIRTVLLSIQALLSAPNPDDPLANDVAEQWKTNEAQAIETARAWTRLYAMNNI
In words: nHU-MS peptide bait, prey UBE2N.

The target in the next assay is T5, GYPC (Homo sapiens, UniProt P04921).
T5 sequence (P04921 1-128): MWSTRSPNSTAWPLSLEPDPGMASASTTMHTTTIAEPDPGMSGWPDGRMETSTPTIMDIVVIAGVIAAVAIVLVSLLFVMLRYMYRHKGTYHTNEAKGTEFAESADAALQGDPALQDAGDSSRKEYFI
In words: nHU-MS peptide bait, prey GYPC.

pKd: −log10 of the molar value. Residues, ends and D or L forms follow the SMILES beside them.

AURKA, sequence (O14965 whole entry): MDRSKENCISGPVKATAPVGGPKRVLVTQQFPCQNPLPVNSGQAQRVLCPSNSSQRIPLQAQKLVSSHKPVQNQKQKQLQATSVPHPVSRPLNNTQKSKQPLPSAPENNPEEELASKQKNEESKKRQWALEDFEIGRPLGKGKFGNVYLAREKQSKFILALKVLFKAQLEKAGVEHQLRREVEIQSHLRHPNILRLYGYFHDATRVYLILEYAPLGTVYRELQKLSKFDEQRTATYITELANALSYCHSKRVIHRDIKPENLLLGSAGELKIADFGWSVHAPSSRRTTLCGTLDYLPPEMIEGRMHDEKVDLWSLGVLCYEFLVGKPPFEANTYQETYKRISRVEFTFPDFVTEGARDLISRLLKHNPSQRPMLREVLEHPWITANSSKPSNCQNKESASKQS
PLEK, sequence (P08567 whole entry): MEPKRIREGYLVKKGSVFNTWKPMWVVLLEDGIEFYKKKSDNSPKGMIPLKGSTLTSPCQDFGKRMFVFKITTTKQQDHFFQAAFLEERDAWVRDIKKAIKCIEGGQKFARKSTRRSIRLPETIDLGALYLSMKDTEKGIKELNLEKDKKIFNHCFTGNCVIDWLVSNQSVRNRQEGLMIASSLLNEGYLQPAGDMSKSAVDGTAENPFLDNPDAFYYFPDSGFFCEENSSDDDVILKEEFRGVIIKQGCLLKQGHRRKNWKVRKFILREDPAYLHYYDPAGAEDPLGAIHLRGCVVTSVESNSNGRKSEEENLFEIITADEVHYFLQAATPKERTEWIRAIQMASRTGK
TMA7, sequence (Q9Y2S6 whole entry): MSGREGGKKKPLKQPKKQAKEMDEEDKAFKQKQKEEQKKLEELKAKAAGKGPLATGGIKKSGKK
CCDC174, sequence (Q6PII3 whole entry): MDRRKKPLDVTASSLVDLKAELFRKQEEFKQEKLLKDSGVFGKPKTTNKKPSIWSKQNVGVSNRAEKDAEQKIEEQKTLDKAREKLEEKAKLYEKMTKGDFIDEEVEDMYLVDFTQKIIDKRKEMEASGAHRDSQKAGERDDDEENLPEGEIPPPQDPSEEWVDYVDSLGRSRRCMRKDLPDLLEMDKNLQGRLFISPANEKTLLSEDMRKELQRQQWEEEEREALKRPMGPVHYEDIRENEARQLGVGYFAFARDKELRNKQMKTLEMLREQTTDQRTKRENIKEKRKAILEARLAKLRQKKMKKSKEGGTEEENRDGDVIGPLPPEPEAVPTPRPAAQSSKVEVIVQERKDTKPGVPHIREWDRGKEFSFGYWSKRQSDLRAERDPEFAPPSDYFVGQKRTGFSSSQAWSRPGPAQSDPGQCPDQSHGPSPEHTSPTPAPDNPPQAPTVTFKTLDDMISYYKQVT
SSBP4, sequence (Q9BWG4 whole entry): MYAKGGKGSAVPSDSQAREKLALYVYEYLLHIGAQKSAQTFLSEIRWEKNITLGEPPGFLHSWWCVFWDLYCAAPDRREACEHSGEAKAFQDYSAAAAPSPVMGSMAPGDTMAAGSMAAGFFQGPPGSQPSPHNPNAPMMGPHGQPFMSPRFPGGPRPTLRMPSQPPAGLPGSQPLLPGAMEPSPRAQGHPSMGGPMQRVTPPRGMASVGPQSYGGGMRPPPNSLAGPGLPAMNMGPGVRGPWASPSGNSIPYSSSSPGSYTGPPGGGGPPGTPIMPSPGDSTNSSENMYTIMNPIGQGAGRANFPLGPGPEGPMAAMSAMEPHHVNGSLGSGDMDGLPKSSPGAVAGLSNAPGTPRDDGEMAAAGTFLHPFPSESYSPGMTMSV
SSBP4, sequence (Q86U70 whole entry): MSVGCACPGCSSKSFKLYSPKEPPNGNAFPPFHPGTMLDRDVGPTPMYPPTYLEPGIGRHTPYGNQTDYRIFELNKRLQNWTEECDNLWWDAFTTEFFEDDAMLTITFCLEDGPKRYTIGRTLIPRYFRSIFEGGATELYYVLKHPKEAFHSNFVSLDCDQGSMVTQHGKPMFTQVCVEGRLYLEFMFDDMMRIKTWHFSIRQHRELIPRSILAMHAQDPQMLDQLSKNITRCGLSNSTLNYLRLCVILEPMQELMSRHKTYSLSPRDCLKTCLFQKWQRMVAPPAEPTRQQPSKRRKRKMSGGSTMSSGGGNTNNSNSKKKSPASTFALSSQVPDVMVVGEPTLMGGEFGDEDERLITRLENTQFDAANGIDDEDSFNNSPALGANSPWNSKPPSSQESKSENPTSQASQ
HSPA5, sequence (P11021 19-654): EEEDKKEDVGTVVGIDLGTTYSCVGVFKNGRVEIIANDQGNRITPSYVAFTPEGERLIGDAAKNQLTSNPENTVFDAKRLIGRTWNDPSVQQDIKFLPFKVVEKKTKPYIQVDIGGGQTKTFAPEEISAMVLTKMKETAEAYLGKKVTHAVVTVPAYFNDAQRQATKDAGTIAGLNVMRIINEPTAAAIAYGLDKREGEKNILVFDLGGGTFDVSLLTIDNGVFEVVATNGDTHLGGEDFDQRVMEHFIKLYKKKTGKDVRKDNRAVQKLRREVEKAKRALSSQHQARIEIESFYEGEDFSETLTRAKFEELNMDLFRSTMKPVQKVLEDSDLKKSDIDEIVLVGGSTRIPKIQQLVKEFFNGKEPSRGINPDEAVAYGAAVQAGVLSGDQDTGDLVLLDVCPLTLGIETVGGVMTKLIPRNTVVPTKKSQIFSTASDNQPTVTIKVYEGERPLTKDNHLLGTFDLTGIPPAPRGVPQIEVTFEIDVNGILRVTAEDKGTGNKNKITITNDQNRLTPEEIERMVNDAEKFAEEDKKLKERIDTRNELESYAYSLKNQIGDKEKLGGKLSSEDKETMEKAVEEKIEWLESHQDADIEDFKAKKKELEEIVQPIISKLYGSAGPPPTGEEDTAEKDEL
GNB4, sequence (Q9HAV0 2-340 limits assumed): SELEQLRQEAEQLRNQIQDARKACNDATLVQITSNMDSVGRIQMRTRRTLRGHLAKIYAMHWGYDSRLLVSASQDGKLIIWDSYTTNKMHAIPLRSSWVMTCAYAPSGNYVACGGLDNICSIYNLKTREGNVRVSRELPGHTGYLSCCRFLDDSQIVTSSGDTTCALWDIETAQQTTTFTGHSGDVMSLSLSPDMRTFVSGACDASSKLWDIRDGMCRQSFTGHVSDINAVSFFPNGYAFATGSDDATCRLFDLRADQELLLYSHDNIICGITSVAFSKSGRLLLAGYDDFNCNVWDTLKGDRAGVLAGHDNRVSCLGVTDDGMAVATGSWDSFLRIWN
GNB4, sequence (P59768 2-68 partner limits assumed): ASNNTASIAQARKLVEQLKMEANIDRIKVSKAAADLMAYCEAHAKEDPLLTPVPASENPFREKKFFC
SSBP2, sequence (P81877 whole entry): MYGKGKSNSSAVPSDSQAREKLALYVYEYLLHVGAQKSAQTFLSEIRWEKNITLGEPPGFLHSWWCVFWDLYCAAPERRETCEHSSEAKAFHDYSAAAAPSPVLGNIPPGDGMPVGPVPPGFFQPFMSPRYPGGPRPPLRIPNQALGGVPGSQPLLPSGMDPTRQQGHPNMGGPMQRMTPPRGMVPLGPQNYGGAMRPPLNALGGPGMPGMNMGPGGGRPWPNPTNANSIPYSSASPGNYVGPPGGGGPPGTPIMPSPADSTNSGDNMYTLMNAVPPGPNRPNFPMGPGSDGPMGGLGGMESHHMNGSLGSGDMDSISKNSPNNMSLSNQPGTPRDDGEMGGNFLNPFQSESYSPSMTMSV
SSBP2, sequence (Q86U70 whole entry): as the sequence (Q86U70 whole entry) above

As usually defined, the pKd is −log10 of the Kd, conventionally taken in molar units. Low values mean a large Kd, high ones a small Kd. Consider `CC[C@H](C)[C@H](NC(=O)[C@@H](N)CCCNC(=N)N)C(=O)N1CCC[C@H]1C(=O)N[C@H](C(=O)N[C@@H](CC(C)C)C(=O)N[C@@H](CC(N)=O)C(=O)N1CCC[C@H]1C(=O)N[C@@H](Cc1ccccc1)C(=O)N[C@@H](CCC(=O)O)C(=O)N[C@@H](CO)C(=O)N1CCC[C@H]1C(=O)N[C@@H](CO)C(=O)N[C@@H](CC(=O)O)C(=O)N[C@@H](Cc1ccc(O)cc1)C(=O)N[C@@H](CO)C(=O)N[C@@H](CC(N)=O)C(=O)N[C@@H](CC(C)C)C(=O)N[C@@H](Cc1c[nH]cn1)C(=O)N[C@@H](CCC(=O)O)C(=O)N[C@@H](CCC(N)=O)C(=O)N[C@H](C(N)=O)[C@@H](C)O)C(C)C` [BORA] (H-RIPVLNPFESPSDYSNLHEQT-NH2), for which the values for the pKd at PLEK, at CCDC174 and at EHD1 were 5.03, 4.96 and 4.40, respectively. Moreover, the BI on PLEK (prey PLEK, MS7_Varjosalo) is reported as 0.5145; on CCDC174 (prey CCDC174, MS7_Varjosalo), 0.4787; at EHD1, 0.2025.
Regarding `CSCC[C@H](NC(=O)[C@@H]1CCCN1C(=O)[C@@H](NC(=O)[C@@H]1CCCN1C(=O)[C@@H]1CCCN1C(=O)[C@@H]1CCCN1C(=O)[C@H](C)NC(=O)[C@H](Cc1ccccc1)NC(=O)[C@H](CCC(=O)O)NC(=O)[C@@H](NC(=O)[C@H](CC(C)C)NC(=O)[C@@H](N)Cc1c[nH]cn1)[C@@H](C)O)[C@@H](C)O)C(=O)N[C@H](C(=O)N[C@@H](CC(=O)O)C(=O)N[C@@H](Cc1c[nH]cn1)C(=O)N[C@@H](CC(C)C)C(=O)N[C@H](C(=O)N[C@@H](C)C(=O)N[C@@H](CO)C(=O)N[C@@H](CC(N)=O)C(=O)N1CCC[C@H]1C(=O)N[C@@H](Cc1ccccc1)C(=O)N[C@@H](CCC(=O)O)C(=O)N[C@@H](CC(=O)O)C(=O)N[C@@H](CC(=O)O)C(=O)N[C@@H](Cc1ccccc1)C(=O)NCC(=O)N[C@@H](C)C(=O)N1CCC[C@H]1C(=O)N[C@@H](CCCCN)C(N)=O)C(C)C)C(C)C` [PYGO2 57-86], the values for the pKd at SSBP2, on SSBP4 and at AURKA were 4.72, 4.91 and 4.54, respectively. In addition, the BI at SSBP2 (prey SSBP2, MS8_Varjosalo) is listed as 0.3462; on SSBP4 (prey SSBP4, MS8_Varjosalo) it was 0.451; at AURKA (prey AURKA, MS8_Varjosalo), 0.2591.
As for `CC[C@H](C)[C@H](NC(=O)[C@H](Cc1ccccc1)NC(=O)[C@@H]1CCCN1C(=O)[C@H](CC(N)=O)NC(=O)[C@@H]1CCCN1C(=O)[C@H](CO)NC(=O)[C@H](CO)NC(=O)[C@@H](N)CCCNC(=N)N)C(=O)N[C@H](C(=O)NCC(=O)N[C@@H](CC(C)C)C(=O)N[C@H](C(=O)N[C@@H](CCCNC(=N)N)C(=O)N[C@H](C(=O)N[C@@H](CC(N)=O)C(=O)N1CCC[C@H]1C(=O)N[C@@H](Cc1ccccc1)C(=O)N[C@@H](CO)C(=O)N[C@@H](CC(=O)O)C(=O)N[C@@H](CCCNC(=N)N)C(=O)N[C@H](C(=O)N[C@@H](C)C(=O)N[C@@H](C)C(=O)N1CCC[C@H]1C(=O)NCC(=O)N[C@@H](CC(N)=O)C(=O)N1CCC[C@H]1C(=O)N[C@@H](Cc1ccccc1)C(=O)N[C@@H](CCCNC(=N)N)C(=O)N[C@@H](C)C(=O)N[C@@H](CCCCN)C(=O)N[C@@H](CO)C(N)=O)[C@@H](C)O)[C@@H](C)O)[C@@H](C)O)[C@@H](C)O` [SYNJ1_1390-1421] (H-RSSPNPFITGLTRTNPFSDRTAAPGNPFRAKS-NH2), the pKd on EHD1 is 4.61; at HSPA5 it was 4.70; on PPP2R2A (MS5_Varjosalo), 4.48; on PPP2R2A (MS7_Varjosalo) it was 4.52. The BI came to 0.2916 on EHD1; 0.3347 at HSPA5 (prey HSPA5, MS5_Varjosalo); 0.2309 on PPP2R2A (MS5_Varjosalo); 0.2507 at PPP2R2A (MS7_Varjosalo).
Consider `CC(C)[C@H](NC(=O)[C@H](CCCCN)NC(=O)[C@H](Cc1ccccc1)NC(=O)[C@@H]1CCCN1C(=O)[C@H](CC(N)=O)NC(=O)[C@@H](NC(=O)[C@H](CCCNC(=N)N)NC(=O)CNC(=O)[C@H](CCC(N)=O)NC(=O)[C@H](CO)NC(=O)[C@@H](N)CO)C(C)C)C(=O)N[C@@H](CO)C(=O)N[C@@H](C)C(=O)N[C@@H](CO)C(=O)N[C@@H](CO)C(=O)N[C@@H](CCCCN)C(=O)N[C@@H](CCC(=O)O)C(=O)N1CCC[C@H]1C(=O)N[C@@H](C)C(N)=O` [WDHD1 906-924] (H-SSQGRVNPFKVSASSKEPA-NH2), for which the negative-log Kd (pKd) at EHD4 was 4.72; on GNB4, 4.90; on TMA7, 4.87; on UBE2N, 4.68; on GYPC, 4.73. The BI at EHD4 (prey EHD4, MS4_Varjosalo) was determined as 0.3455; on GNB4 (prey GNB4, MS7_Varjosalo) it was 0.4407; at TMA7 (prey TMA7, MS7_Varjosalo), 0.4275; at UBE2N (prey UBE2N, MS4_Varjosalo) it was 0.3252; at GYPC (prey GYPC, MS4_Varjosalo), 0.35.
